In data set [1] the test system is RPMI-7951. The data set is described as follows: Antiproliferative activity against human RPMI-7951 cells assessed as inhibition of cell growth incubated for 24 hrs by MTT assay. In kind it is functional, cell-based. The following applies: RPMI-7951, 24 h. In general terms: Tetrazolium dyes change colour on reduction, which living cells bring about.
Data set [2] relates to MDA-MB-231. Briefly: Antiproliferative activity against human MDA-MB-231 cells assessed as inhibition of cell growth incubated for 96 hrs by MTT assay. In kind it is functional, cell-based. The following applies: MDA-MB-231, 96 h.
Data set [3] deals with HT-29. Briefly: Antiproliferative activity against human HT-29 cells overexpressing carbonic anhydrase IX assessed as inhibition of cell growth incubated for 96 hrs under hypoxic condition by MTT assay. Format: functional, cell-based. The following applies: HT-29, 96 h.
The nature of data set [4]: Cytotoxicity against human MCF-10A cells assessed as inhibition of cell growth incubated for 96 hrs by MTT assay. In kind it is toxicity, cell-based.
Data set [5] has as its system HT-29. The data set is described as follows: Antiproliferative activity against human HT-29 cells assessed as inhibition of cell growth incubated for 96 hrs by MTT assay. The following applies: HT-29, 96 h. Format: functional, cell-based.
For data set [6], the system named is PC-12. Briefly: Antiproliferative activity against PC-12 cells assessed as inhibition of cell growth incubated for 72 hrs by MTT assay. In kind it is functional, cell-based. Conditions: Rattus norvegicus, PC-12, 72 h.
For data set [7], the system named is U-87 MG. Briefly: Antiproliferative activity against human U-87 MG cells assessed as inhibition of cell growth incubated for 72 hrs by MTT assay. In kind it is functional, cell-based, U-87MG ATCC.
Data set [8] in a line: Cytotoxicity against human L02 cells assessed as inhibition of cell growth incubated for 72 hrs by MTT assay. Format: toxicity, cell-based.
Data set [9] has as its system SH-SY5Y. Briefly: Antiproliferative activity against human SH-SY5Y cells assessed as inhibition of cell growth incubated for 72 hrs by MTT assay. In kind it is functional, cell-based.
In data set [10] the test system is A549. Briefly: Antiproliferative activity against human A549 cells assessed as inhibition of cell growth incubated for 72 hrs by MTT assay. Format: functional, cell-based. The following applies: A549, 72 h.
Data set [11] has as its system MCF7. The data set is described as follows: Antiproliferative activity against human MCF7 cells assessed as inhibition of cell growth incubated for 72 hrs by MTT assay. Format: functional, cell-based. The following applies: MCF7, 72 h.
Data set [12] has as its system HCT-116. The data set is described as follows: Antiproliferative activity against human HCT-116 cells assessed as inhibition of cell growth incubated for 72 hrs by MTT assay. In kind it is functional, cell-based. Conditions: HCT-116, 72 h.
Data set [13] deals with U-118-MG. Briefly: Antiproliferative activity against human U-118-MG cells assessed as inhibition of cell growth incubated for 72 hrs by MTT assay. In kind it is functional, cell-based.
Data set [14] relates to Mus musculus. The data set is described as follows: Antitumor activity against human RL95-2 cells xenografted in BALB/c nude mouse assessed as tumor growth inhibition rate at 5.0 mg/kg, ip administered three times a week for 4 weeks relative to control. Format: functional. Conditions: RL95-2, 672 h. On the technique in general: In xenograft studies the graft and the host belong to different species.

In data set [15] the test system is RL95-2. The data set is described as follows: Antiproliferative activity against human RL95-2 cells assessed as inhibition of cell growth by MTT assay. Format: functional, cell-based. Conditions: pooled result: one value given for 6 cell lines, strains, targets or settings.
A short description of data set [16]: Antiproliferative activity against mouse Lewis lung carcinoma cell line assessed as inhibition of cell growth incubated for 48 hrs by MTT assay. Format: functional, cell-based.
The test system of data set [17] is A549. The data set is described as follows: Antiproliferative activity against human A549 cells assessed as inhibition of cell growth incubated for 96 hrs by MTT assay. Format: functional, cell-based. The following applies: A549, 96 h.
Data set [18] has as its system A549. The data set is described as follows: Antitumor activity against human A549 cells xenografted in nude mouse assessed as tumor growth inhibition rate relative to control. In kind it is functional.
Data set [19] deals with MDA-MB-231. Briefly: Antiproliferative activity against human MDA-MB-231 cells assessed as inhibition of cell growth. Format: functional, cell-based.
In data set [20] the test system is HCT-116. The data set is described as follows: Antiproliferative activity against human HCT-116 cells assessed as inhibition of cell growth. Format: functional, cell-based.
Data set [21] relates to HeLa. Briefly: Antiproliferative activity against human HeLa cells assessed as inhibition of cell growth. In kind it is functional, cell-based.
Data set [22] deals with SK-BR-3. Briefly: Antiproliferative activity against human SK-BR-3 cells assessed as inhibition of cell growth. Format: functional, cell-based.
Data set [23] has as its system NCI-H460. Briefly: Antiproliferative activity against human NCI-H460 cells assessed as inhibition of cell growth incubated for 72 hrs by MTT assay. Conditions: NCI-H460, 72 h. In kind it is functional, cell-based.
Data set [24] has as its system HeLa. The data set is described as follows: Antiproliferative activity against human HeLa cells assessed as inhibition of cell growth incubated for 72 hrs by MTT assay. Format: functional, cell-based.
Data set [25] concerns HT-29. Briefly: Antiproliferative activity against human HT-29 cells assessed as inhibition of cell growth incubated for 72 hrs by MTT assay. Conditions: HT-29, 72 h. Format: functional, cell-based.
Data set [26] has as its system MDA-MB-231. Briefly: Antiproliferative activity against human MDA-MB-231 cells assessed as inhibition of cell growth incubated for 72 hrs by MTT assay. Format: functional, cell-based. Conditions: MDA-MB-231, 72 h.
The subject of data set [27] is U-87 MG. The data set is described as follows: Antiproliferative activity against human U87 cells assessed as inhibition of cell growth incubated for 24 hrs by MTT assay. In kind it is functional, cell-based, U-87MG ATCC.
For data set [28], the system named is U-87 MG. Briefly: Antiproliferative activity against human U87 cells assessed as inhibition of cell growth incubated for 72 hrs by MTT assay. Format: functional, cell-based, U-87MG ATCC.
Data set [29] has as its system HepG2. The data set is described as follows: Antiproliferative activity against human HepG2 cells assessed as inhibition of cell growth by MTT assay. In kind it is functional, cell-based.

Structures are written as SMILES. Some results are limits rather than exact numbers.

What is called IC50 is the midpoint of a concentration-inhibition curve. As to `COC(=O)C(Cc1ccc(OC(=O)CCC(=O)O[C@@H]2O[C@@H]3O[C@@]4(C)CC[C@H]5[C@H](C)CC[C@@H]([C@H]2C)[C@@]35OO4)cc1)NC(=O)CCC(=O)O[C@@H]1O[C@@H]2O[C@@]3(C)CC[C@H]4[C@H](C)CC[C@@H]([C@H]1C)[C@@]24OO3` (stereo partly specified), the IC50 in [1] worked out at 1.76 µM.

On to `C[C@H]1[C@@H](OCCc2cn(-c3ccc(S(N)(=O)=O)cc3)nn2)O[C@@H]2O[C@@]3(C)CC[C@H]4[C@H](C)CC[C@@H]1[C@@]24OO3`, for which the concentration for half-maximal inhibition (IC50) in data set [2] was determined as 1.92 µM; in data set [3], 0.65 µM; in data set [5], 1.92 µM. Moreover, in data set [4], the concentration for half-maximal inhibition (IC50) at 96 h turned out to be 78 µM.

`C[C@@H]1CC[C@H]2[C@@H](C)C(N3CCN(C(=O)Oc4ccc(SC(F)(F)F)cc4)CC3)O[C@@H]3O[C@@]4(C)CC[C@@H]1[C@]32OO4` (stereo partly specified): the 50% inhibitory concentration (IC50) in data set [6] is at least 0.12 µM; in data set [7], at least 0.12 µM; in data set [9], at least 0.12 µM; in [10], at least 0.12 µM; in data set [11], at least 0.12 µM; in data set [12], 0.12 µM. For the same compound, the half-inhibitory concentration (IC50) in data set [13] is at least 0.12 µM. For the same compound, in [8], the half-maximal inhibitory concentration (IC50) at 72 h turned out to be 12.5 µM.

What is called inhibition in vivo is the percentage by which the read-out fell short of the control. Regarding `C[C@H]1[C@@H](OCCNCCO[C@H]2O[C@@H]3O[C@@]4(C)CC[C@H]5[C@H](C)CC[C@@H]([C@H]2C)[C@@]35OO4)O[C@@H]2O[C@@]3(C)CC[C@H]4[C@H](C)CC[C@@H]1[C@@]24OO3`, the inhibition in vivo at 5 mg/kg in data set [14] amounted to 49.9%. Besides, the IC50 in [15] was found to be 1.16 µM.

As for `C[C@H]1[C@@H](O)O[C@@H]2O[C@@]3(C)CC[C@H]4[C@H](C)CC[C@@H]1[C@@]24OO3` [ARTENIMOL], the IC50 in data set [16] worked out at 53.1 µM; in data set [17] it was 0.23 µM. Besides, the “inhibition (INH)” value in [18] stood at 54.3%.

As to `C[C@H]1[C@@H](CCCOC(=O)NCCC[P+](c2ccccc2)(c2ccccc2)c2ccccc2)O[C@@H]2O[C@@]3(C)CC[C@H]4[C@H](C)CC[C@@H]1[C@@]24OO3`, the half-inhibitory concentration (IC50) in [19], in data set [20], in data set [21] and in data set [22] was 0.82 µM in each case.

On to `COc1ccc(OC)c(/C=C/C(=O)c2ccc(OCC(=O)N[C@@H]3O[C@@H]4O[C@@]5(C)CC[C@H]6[C@H](C)CC[C@@H]([C@H]3C)[C@@]46OO5)cc2)c1`, for which the concentration for half-maximal inhibition (IC50) in data set [23], in data set [24], in data set [25] and in data set [26] was 0.19 µM in each case.

For the compound `C[C@H]1[C@H](OC(=O)CCC(=O)OCc2ccc(OC(=O)CCC(=O)O[C@@H]3O[C@@H]4O[C@@]5(C)CC[C@H]6[C@H](C)CC[C@@H]([C@H]3C)[C@@]46OO5)cc2)O[C@@H]2O[C@@]3(C)CC[C@H]4[C@H](C)CC[C@@H]1[C@@]24OO3`, the IC50 in [1] is 0.05 µM.

`C[C@H]1[C@@H](OCCCN=C=S)O[C@@H]2O[C@@]3(C)CC[C@H]4[C@H](C)CC[C@@H]1[C@@]24OO3`: the results for the IC50 in [27] and in [28] were 7.41 µM and 7.35 µM, respectively.

Turning to `CCCCCCCCCCCCOC(=O)C[C@H]1O[C@@H]2O[C@@]3(C)CC[C@H]4[C@H](C)CC[C@@H]([C@H]1C)[C@@]24OO3`, the concentration for half-maximal inhibition (IC50) in [29] is 0.72 µM.

On to `CCCCCCCCNC(=O)C[C@H]1O[C@@H]2O[C@@]3(C)CC[C@H]4[C@H](C)CC[C@@H]([C@H]1C)[C@@]24OO3`, for which the IC50 in data set [29] was determined as 9.5 µM.
